Laboratory results reported in PMC8584173, “The Cytotoxic Effect of Copper (II) Complexes with Halogenated 1,3-Disubstituted Arylthioureas on Cancer and Bacterial Cells” (International Journal of Molecular Sciences, 2021).

Key:
[1] = test system: Bacillus subtilis M45 (rec−); assay: Bacillus subtilis rec-assay, M45; format: cell-based; settings: B. subtilis M45; 256 µg per disc (NOQ 2 µg per disc)
Protocol: DNA-damaging activity of compounds was tested by rec-assay using two genetically modified Bacillus subtilis strains: M45 (rec^−) and H17 (rec^+). Tested compounds were dissolved in DMSO, and 10 µL of each solution was dripped onto sterile cotton discs (Rotilabo) to load 256 µg of a given compound per 9 mm disc. Discs were placed on the surface nutrient agar plates (Difco), inoculated with 100 µL of bacterial overnight culture and incubated […] at 35 °C. After incubation, the growth inhibition zones were measured. […] Results of the genotoxicity test were estimated after 18 h of incubation at 35 °C by comparing the diameter of the inhibition zone on the B. subtilis M45 (rec^−) strain with that on the B. subtilis H17 (rec^+) strain.

S. aureus 568 = assay: MIC, hospital MRSA strain; format: cell-based, Staphylococcus aureus; settings: hospital MRSA S. aureus 568
Protocol: (§1) The antimicrobial activity of the compounds was tested on Gram-positive bacteria (Staphylococcus aureus NCTC 4163, Staphylococcus aureus ATCC 25923, Staphylococcus aureus ATCC 6538, Staphylococcus aureus ATCC 29213, Staphylococcus epidermidis ATCC 12228, Staphylococcus epidermidis ATCC 35984), Gram-negative rods (Escherichia coli ATCC 10538, Escherichia coli ATCC 25922, Pseudomonas aeruginosa ATCC 15442, Pseudomonas aeruginosa ATCC 27863) and yeasts (Candida albicans ATCC 10231, Candida albicans ATCC 90028, Candida parapsilosis ATCC 22019). Hospital methicillin-resistant strains of Staphylococcus aureus and Staphylococcus epidermidis were obtained from the collection of the Department of Pharmaceutical Microbiology, Medical University of Warsaw, Poland.
(§2) Antifungal activities were assessed using Mueller–Hinton agar + 2% glucose and 0.5 µg/mL methylene blue dye medium. Sterile filter paper discs (9 mm diameter, Whatman Number 3 chromatography paper) were dripped with tested compound solutions (in dimethylsulfoxide, DMSO) to load 400 μg of a given compound per disc. Dry discs were placed on the surface of appropriate agar medium. The results (diameter of the growth inhibition zone) were read after 18 h of incubation at 35 °C. Minimal inhibitory concentration (MIC) was tested by the twofold serial microdilution method (in 96-well microtiter plates) using Mueller–Hinton broth medium (Beckton Dickinson) for bacteria or RPMI-1640 medium for Candida species, according to CLSI guidelines. The stock solution of tested agent was prepared in DMSO and diluted in sterile water. […] The final inoculum of all studied microorganisms was 10^5 CFU/ mL^−1 (colony forming units per ml). Minimal inhibitory concentrations (the lowest concentration of a tested agent that prevents visible growth of a microorganism) were read after 18 h (bacteria) or 24 h (yeasts) of incubation at 35 °C.

S. aureus 497 = assay: MIC, hospital MRSA strain; format: cell-based, Staphylococcus aureus; settings: hospital MRSA S. aureus 497
Protocol: as §1, §2

S. aureus 522 = assay: MIC, hospital MRSA strain; format: cell-based, Staphylococcus aureus; settings: hospital MRSA S. aureus 522
Protocol: as §1, §2

S. aureus 572 = assay: MIC, hospital MRSA strain; format: cell-based, Staphylococcus aureus
Protocol: as §1, §2

S. aureus 498 = assay: MIC, hospital MRSA strain; format: cell-based, Staphylococcus aureus; settings: hospital MRSA S. aureus 498
Protocol: as §1, §2

S. aureus 514 = assay: MIC, hospital MRSA strain; format: cell-based, Staphylococcus aureus; settings: hospital MRSA S. aureus 514
Protocol: as §1, §2

S. aureus 573 = assay: MIC, hospital MRSA strain; format: cell-based, Staphylococcus aureus; settings: hospital MRSA S. aureus 573
Protocol: as §1, §2

S. aureus 567 = assay: MIC, hospital MRSA strain; format: cell-based, Staphylococcus aureus; settings: hospital MRSA S. aureus 567
Protocol: as §1, §2

S. aureus 586 = assay: MIC, hospital MRSA strain; format: cell-based, Staphylococcus aureus; settings: hospital MRSA S. aureus 586
Protocol: as §1, §2

S. aureus 496 = assay: MIC, hospital MRSA strain; format: cell-based, Staphylococcus aureus; settings: hospital MRSA S. aureus 496
Protocol: as §1, §2

S. aureus 585 = assay: MIC, hospital MRSA strain; format: cell-based, Staphylococcus aureus; settings: hospital MRSA S. aureus 585
Protocol: as §1, §2

S. aureus 537 = assay: MIC, hospital MRSA strain; format: cell-based, Staphylococcus aureus; settings: hospital MRSA S. aureus 537
Protocol: as §1, §2

S. aureus 495 = assay: MIC, hospital MRSA strain; format: cell-based, Staphylococcus aureus; settings: hospital MRSA S. aureus 495
Protocol: as §1, §2

S. aureus 481 = assay: MIC, hospital MRSA strain; format: cell-based, Staphylococcus aureus
Protocol: as §1, §2

[2] = test system: SW620 (human metastatic colon cancer); assay: MTT cytotoxicity assay, SW620; format: cell-based; settings: SW620, 72 h
Protocol: The human primary (SW480), metastatic (SW620) colon cancer, metastatic prostate cancer (PC3) and human immortal keratinocyte (HaCaT) cell lines were purchased from the American Type Culture Collection (ATCC, Rockville, USA). The cells were cultured in medium according to protocols (MEM for SW480 and SW620, RPMI 1640 for PC3 and DMEM for HaCaT cells) supplemented with 10% fetal bovine serum (FBS), penicillin (100 U/mL) and streptomycin (100 μg/mL) and cultured in 37 °C/ 5% CO2 humidified incubator. The cells were cultured until appropriate confluence was achieved (80–90%). Next, they were harvested by treatment with 0.25% trypsin (Gibco Life Technologies, USA) and used for studies.
Cells without studied compounds in medium were used as a control.
The cell viability was assessed by determination of MTT salt (3-(4,5-dimethylthiazol-2-yl)-2,5-diphenyltetrazolium bromide) conversion by mitochondrial dehydrogenase. MTT assay was performed as previously described. Experiments were repeated three times. Cell viability was presented as a percentage of MTT reduction in the treated cells versus the control cells. Number of viable cells cultured without studied compounds was assumed to be 100%. Decreased relative MTT level means decreased cell viability.

[3] = test system: hospital S. epidermidis (MRSE); assay: MIC, hospital S. epidermidis; format: cell-based, Staphylococcus epidermidis; settings: S. epidermidis 424, 471, 511, 515 and 431–433 isolates
Protocol: as §1, §2

O=[N+]([O-])c1cc([N+]2=C(Nc3ccc(I)cc3)[S][Cu-2]23[S]C(Nc2ccc(I)cc2)=[N+]3c2ccc(Cl)c([N+](=O)[O-])c2)ccc1Cl [Compound 8, Copper (II) complex with 1-(4-iodophenyl)-3-(4-chloro-3-nitrophenyl)thiourea]
inhibition zone diameter [1]: 14 mm
MIC (S. aureus 568): 8 µg/mL
MIC (S. aureus 497): 8 µg/mL
MIC (S. aureus 522): 4 µg/mL
times more active than ciprofloxacin (S. aureus 572; S. aureus 572): 64 times
MIC (S. aureus 572; hospital MRSA S. aureus 572): 4 µg/mL
MIC (S. aureus 498): 8 µg/mL
MIC (S. aureus 514): 4 µg/mL
MIC (S. aureus 573): 8 µg/mL
MIC (S. aureus 567): 8 µg/mL
MIC (S. aureus 586): 8 µg/mL
MIC (S. aureus 496): 8 µg/mL
MIC (S. aureus 585): 8 µg/mL
MIC (S. aureus 537): 8 µg/mL
MIC (S. aureus 495): 4 µg/mL
times more active than ciprofloxacin (S. aureus 481; S. aureus 481): 64 times
MIC (S. aureus 481; hospital MRSA S. aureus 481): 4 µg/mL
IC50 [2]: 17.8 ± 1.3 µM
times more effective than the reference chemotherapeutic (ciprofloxacin) [3]: 2–16 times
